According to US10907158B2, “Antisense antibacterial compounds and methods” (priority 2015, dated 2021):
Blank lines part the entries; values can stand above or below the molecule they belong to.

Key:
[1] = system: E. coli BW25113; type: cell-based; details: Pip/Tazo alone, 18 h, MHII
[2] = system: NDM-1 strains; assay: MIC of meropenem in various concentrations of NDM-1 PPMO; type: cell-based, K. pneumoniae; details: Klebsiella pneumoniae; meropenem without PPMO
[3] = system: K. pneumoniae; assay: MIC of meropenem in various concentrations of KPC PPMO; details: Klebsiella pneumoniae, read-out: MIC of meropenem
[4] = system: Pseudomonas aeruginosa; details: 18 hours

Molecule: Piperacillin/Tazobactam [Pip/Tazo]
MIC [1]: 4 µg/mL

MIC [2]: 64 µg/mL
MIC [3]: 32 µg/mL
Molecule: C[C@@H](O)[C@H]1C(=O)N2C(C(=O)O)=C(S[C@@H]3CN[C@H](C(=O)N(C)C)C3)[C@H](C)[C@H]12 [meropenem]

Molecule: Polymyxin B nonapeptide [PMBN]
effect on biofilm formation [4]: did not significantly alter biofilm formation
